Measured values reported in patent US20070271620A1, “Animal model for type II diabetes mellitus and Syndrome X and methods and uses thereof” (priority 2005, published 2007).
Several values for one entry are separate records, joined by “and”; a condition that tells them apart may be missing. Identical values can stand only once. Marks after values point to notes of the source that are not given here.

Legend:
[1] = test system: cross-bred pigs (Yorkshire×Landrace); test: Fasting and postprandial plasma lipid profiles and postprandial insulin in STZ diabetic pigs; format: in vivo, pig
Description: Fasting blood samples were taken before the start of hyperinsulinemic clamp experiments and postprandial blood samples were taken two to three hours after a morning meal in the week following a clamp study.
Blood samples for determination of triglycerides and non-esterified fatty acids (NEFA) were collected in tubes containing EDTA (0.47 mol/L EDTA, 10 mL Venoject, Terumo, Leuven, Belgium) and immediately chilled at 0° C. on ice, and centrifuged at 4° C. for ten minutes at 3000 rpm. Plasma was stored, at −20° C. in four aliquots of 0.5 mL for further analyses.
Concentrations of triglycerides, cholesterol and NEFA were measured using commercially available test kits (Boehringer Mannheim, Mannheim Germany; Human, Wiesbaden, Germany; and Wako Chemicals, Neuss, Germany, respectively).

[2] = test system: cross-bred pigs (Yorkshire×Landrace); test: Hyperinsulinemic euglycemic/hyperglycemic clamp in STZ diabetic pigs; format: in vivo, pig
Description: Protocol 2: insulin-mediated hepatic glucose production and whole body glucose uptake were studied with the hyperinsulinemic (1 or 2 mU/kg/minute) euglycemic clamp technique in combination with 6,6-^2H-glucose infusion in six normal and seven STZ (130 mg/kg) diabetic pigs.
Protocol 3: insulin-mediated whole body glucose disposal was studied with the hyperinsulinemic (2 or 8 mU/kg/minute) euglycemic clamp technique in six normal and six STZ (150 mg/kg) diabetic pigs.
Protocol 4: insulin-mediated whole body glucose disposal under influence of acute mass action of plasma glucose was studied with the hyperinsulinemic (2 mU/kg/minute), euglycemic (6 mmol/L) and hyperglycemic (22 mmol/L) clamp technique in four STZ (110 mg/kg) diabetic pigs.
After overnight fasting, at t=0 minute, insulin was administered as a prime—(17 or 34 mU/kg) continuous (1 or 2 mU/kg/minute) infusion for three hours in normal pigs. Simultaneously, a variable infusion of a 33% D-glucose solution was started and adjusted every ten minutes to maintain the plasma glucose concentration at euglycemic levels and a 6,6-^2H-glucose solution was given as a prime—(216 mg) continuous (3.6 mg/minute). Steady-state conditions were achieved within 90 minutes after initiation of the hyperinsulinemic clamp and steady-state calculations were carried out during the last hour of the clamp (t=120, 135, 150, 165 and 180 minutes). In hyperglycemic diabetic pigs, insulin was given as a prime—(34 or 136 mU/kg) continuous (2 or 8 mU/kg/minute) infusion for five hours. After reaching euglycemic levels, a variable infusion of a 33% D-glucose solution was started and adjusted every ten minutes to maintain the plasma glucose concentration at euglycemia. At t=2 hours, 6,6-^2H-glucose was administered as a prime— (216 mg) continuous (3.6 mg/minute) infusion for the last three hours of the clamp in diabetic pigs. Steady-state conditions were achieved during the last hour of the clamp and steady-state calculations were carried out at (t=240, 255, 270, 285 and 300 minutes).
Hyperinsulinemic hyperglycemic clamp experiments were carried out in diabetic pigs only. After overnight fasting, insulin was given as a prime—(34 mU/kg) continuous (2 mU/kg/minute) infusion for five hours. Simultaneously, a variable infusion of a 33% D-glucose solution was started and adjusted every ten minutes to maintain the plasma glucose concentration at hyperglycemia. Steady-state calculations were carried out during the last hour of the clamp (t=240, 255, 270, 285 and 300 minutes).
6,6-^2H-glucose kinetics: Fasting and insulin-mediated rate of appearance (Ra) of glucose was calculated by dividing the 6,6-^2H-glucose infusion rate (mg/minute) by the plasma 6,6-^2H-glucose enrichment (mg/mg %). Insulin-mediated hepatic glucose production was calculated as measured Ra glucose minus exogenous glucose infusion rate. Under hyperglycemic conditions, the rate of disappearance (Rd) of glucose, or whole body glucose uptake was corrected for urinary glucose excretion. This implies that whole body glucose uptake was calculated as measured Ra glucose minus urinary glucose excretion.

[3] = pigs, STZ 130 mg/kg, two to three hours after morning meal
[4] = pigs, STZ 110 mg/kg, 2 mU/kg/minute clamp at euglycemia
[5] = pigs, STZ 110 mg/kg, 2 mU/kg/minute clamp at hyperglycemia
[6] = pigs, STZ 110 mg/kg, clamp at hyperglycemia
[7] = pigs, STZ 130 mg/kg, insulin clamp 2 mU/kg/minute
[8] = pigs, STZ 150 mg/kg, insulin clamp 8 mU/kg/minute

Compound: CN(N=O)C(=O)N[C@H]1C(O)O[C@H](CO)[C@@H](O)[C@@H]1O (mixture of isomers) [STZ, streptozotocin]
- Postprandial plasma insulin ([1]; STZ diabetic pigs, two to three hours after feeding, detection limit): ~1 mU/L
- Fasting cholesterol and NEFA concentrations compared to normal pigs ([1]; pigs, STZ 130 mg/kg): did not differ
- Fasting plasma NEFA ([1]; pigs, STZ 130 mg/kg): 0.9 ± 0.3 mmol/L
- Fasting plasma cholesterol ([1]; pigs, STZ 130 mg/kg): 2.1 ± 0.2 mmol/L
- Fasting plasma triglyceride elevation compared to normal pigs ([1]; pigs, STZ 130 mg/kg): five-fold
- Fasting plasma triglycerides ([1]; pigs, STZ 130 mg/kg): 1.0 mmol/L and 1.0 ± 0.3 mmol/L
- Postprandial plasma NEFA elevation compared to normal pigs ([1]; pigs, STZ 130 mg/kg): seven-fold
- Postprandial plasma cholesterol elevation compared to normal pigs ([1]; pigs, STZ 130 mg/kg): 1.3 fold
- Postprandial plasma triglycerides elevation compared to normal pigs ([1]; pigs, STZ 130 mg/kg): four-fold
- Postprandial plasma NEFA [1, 3]: 1.5 ± 0.5 mmol/L
- Postprandial plasma cholesterol [1, 3]: 2.3 ± 0.2 mmol/L
- Postprandial plasma trigylcerides [1, 3]: 1.2 mmol/L and 1.2 ± 0.3 mmol/L
- Steady-state glucose infusion rate compared to average in normal pigs ([2]; STZ 150 mg/kg, insulin 8 mU/kg/minute): approximately eight-fold lower
- Fasting plasma insulin compared to normal and diabetic (1.50 mg STZ/kg) pigs ([2]; STZ 110 and 130 mg/kg, on average): two-fold higher
- Steady-state glucose infusion rates compared to average in normal pigs ([2]; STZ 110 to 130 mg/kg, insulin 2 mU/kg/minute): five- to six-fold lower
- Reduction in insulin action ([2]; STZ diabetic pigs): ~75%
- Fasting plasma insulin, range ([2]; diabetic (150 mg STZ/kg) pigs): 0-6 mU/L
- Increase of insulin-mediated whole body glucose disposal at hyperglycemia compared to euglycemia ([2]; pigs, STZ 110 mg/kg, 2 mU/kg/minute clamp): 16%
- Fasting plasma glucose [2, 4]: 22.3 ± 2.1 mmol/L
- Steady-state clamp glucose infusion rate (insulin-mediated whole body glucose disposal) [2, 4]: 5.1 mg/kg/min and 5.1 ± 1.0 mg/kg/min
- Steady-state clamp plasma glucose [2, 4]: 6.0 ± 0.1 mmol/L
- Steady-state clamp plasma insulin [2, 4]: 54 ± 16 mU/L
- Time to reach euglycemia in diabetic pigs [2, 4]: 139 ± 23 min
- Fasting plasma glucose [2, 5]: 23.0 ± 2.4 mmol/L
- Insulin-mediated whole body glucose disposal (glucose infusion rate minus urinary glucose excretion) [2, 5]: 5.9 mg/kg/min and 5.9 ± 0.8 mg/kg/min
- Steady-state clamp glucose infusion rate [2, 5]: 8.2 ± 0.8*^1) mg/kg/minute
- Steady-state clamp plasma glucose [2, 5]: 22.4 ± 2.6 mmol/L
- Steady-state clamp plasma insulin [2, 5]: 62 ± 19 mU/L
- Fasting plasma insulin ([2]; pigs, STZ 110 mg/kg, clamp at euglycemia): 17 ± 13 mU/L
- Fasting plasma insulin [2, 6]: 12 ± 5 mU/L
- Fasting plasma insulin, range [2, 6]: range (3-21) mU/L
- Fasting plasma insulin, range ([2]; pigs, STZ 130 mg/kg): 1-38 mU/L
- Steady-state clamp glucose infusion rate [2, 7]: 5.0 ± 1.4 mg/kg/min
- Steady-state clamp plasma glucose [2, 7]: 6.1 ± 0.8 mmol/L
- Steady-state clamp plasma insulin [2, 7]: 45 ± 5 mU/L
- Time to reach euglycemia in diabetic pigs [2, 7]: 145 ± 22 min
- Fasting plasma glucose ([2]; pigs, STZ 130 mg/kg, insulin clamp 2 mU/kg/minute, with 6,6-2H-glucose infusion, mean ± SEM): 21.7 ± 1.1 mmol/L
- Fasting plasma insulin ([2]; pigs, STZ 130 mg/kg, insulin clamp 2 mU/kg/minute, mean ± SEM): 9 mU/L
- Fasting plasma insulin ([2]; pigs, STZ 130 mg/kg, insulin clamp 2 mU/kg/minute, mean ± SEM, listed as Streptozotocin): 9 ± 7 mU/L
- Fasting plasma insulin, range ([2]; pigs, STZ 130 mg/kg, listed as Streptozotocin): range (1-38) mU/L
- Fasting plasma insulin [2, 8]: 3 ± 1 mU/L
- Steady-state clamp glucose infusion rate [2, 8]: 3.2 ± 1.0 mg/kg/min
- Steady-state clamp plasma glucose [2, 8]: 7.5 ± 0.9 mmol/L
- Steady-state clamp plasma insulin [2, 8]: 228 ± 36 mU/L
- Time to reach euglycemia in diabetic pigs [2, 8]: 243 ± 21 min
- Fasting plasma glucose ([2]; pigs, STZ 150 mg/kg, insulin clamp 8 mU/kg/minute, no tracer): 22.0 ± 0.8 mmol/L
- Overnight fasting plasma glucose compared to normal pigs ([2]; three diabetic pig groups (STZ 110, 130 and 150 mg/kg), on average): four-fold greater
